PMC7228089, “Odiparcil, a potential glycosaminoglycans clearance therapy in mucopolysaccharidosis VI—Evidence from in vitro and in vivo models” (PLoS ONE, 2020)

System: Arsb^- mice
Assay: Cartilage thickness in trachea and distal femoral growth plate (histology)
Type: in vivo
Experimental: MPS VI model nonsense mutation Arsb^m1J homozygous mice (referred to as Arsb^- throughout the manuscript) and WT littermates were obtained from internal breeding of stock mice derived from The Jackson Laboratory strain No: 005598 (C57BL/6J-Arsb^m1J/GrsrJ). Genotyping and Arsb^m1J mutation identification were performed according to the protocol provided by The Jackson Laboratory. Each study group contained mix of male and female: 6 animals in disease progression studies and between 8 and 12 animals in odiparcil treatment studies.
Housing conditions. The animals were housed in groups of 3–10 (for mice) or 2 (for rats) in polypropylene cages (floor area = 1032 cm^2) under standard conditions: room temperature (22 ± 2°C), hygrometry (55 ± 10%), light/dark cycle (12h/12h), air replacement (15–20 volumes/hour), water and food ad libitum. Mice were allowed to habituate for at least 5 days prior to experimentation. Mice were numbered by marking their tail using indelible markers. For the early disease model (treatment starting in juvenile, 4 weeks old mice), odiparcil administration in the weeks 1 to 6 was done per gavage with odiparcil in Methylcellulose 400 cps 1% / Poloxamer 188 0.1% / Water, freshly prepared every week. Later on, administration was per chow diet with odiparcil mixed before diet granulation. […]

Cc1cc(=O)oc2cc(O[C@@H]3SC[C@@H](O)[C@H](O)[C@H]3O)ccc12 [Odiparcil, 4-methyl-7-(5-thio-β-D-xylopyranosyloxy)-2 H-chromen-2-one]
Cartilage thickening in trachea and distal femoral growth plate (Arsb^- mice, early and established disease models, 6 months of treatment): dose-dependent reduction of cartilage thickening
Cartilage thickness in wild type animals (wild type mice, early disease treatment model, only distal femoral growth plate, significant only for the high dose): Some decrease in the thickness of cartilage
